12 molecules from ChEMBL document CHEMBL2046321, “Molecular Docking and in Vitro Antileishmanial Evaluation of Chromene-2-thione Analogues” (ACS Med Chem Lett, 2012) can be followed below.

For data set [1], the system named is Leishmania donovani. Put plainly: Ratio of IC50 for promastigotes of Leishmania donovani LEM-138 (MHOM/IN/00/DEVI) to IC50 for axenic amastigotes of Leishmania donovani LEM-138 (MHOM/IN/00/DEVI). In kind it is functional.
The nature of data set [2]: Cytotoxicity against human PBMC assessed as cell killing at 2 times IC50 after 48 hrs by MTT assay. As to conditions: PBMC (peripheral blood mononuclear cells). A general note: Tetrazolium dyes change colour on reduction, which living cells bring about.
Data set [3] has as its system Leishmania donovani. Description: Antileishmanial activity against axenic amastigotes of Leishmania donovani LEM-138 (MHOM/IN/00/DEVI) by MTT assay. In kind it is functional, organism-based.
Data set [4] relates to Leishmania donovani. Put plainly: Antileishmanial activity against promastigotes of Leishmania donovani LEM-138 (MHOM/IN/00/DEVI) by MTT assay. In kind it is functional, organism-based.
The nature of data set [5]: Cytotoxicity against human PBMC assessed as cell killing at IC50 after 48 hrs by MTT assay. The settings on record: PBMC (peripheral blood mononuclear cells).
Data set [6] deals with Leishmania donovani. Description: Antileishmanial activity against amastigotes of Leishmania donovani LEM-138 (MHOM/IN/00/DEVI) infected in mouse J774A.1 cells after 72 hrs by Giemsa dye staining. It counts as functional, organism-based. As to conditions: J774.A1, 72 h.

By IC50 is commonly meant the point on the concentration scale where inhibition reaches its midpoint. High values mean lower potency, low ones higher potency.

On to `COc1cccc2cc(C(=O)c3ccc(C)cc3)c(=S)oc12`, for which the Ratio IC50 with Leishmania donovani [1] is 1.7. Also, the cell killing at 48 h in data set [2] was found to be 33.1%; in data set [5], 9.4%. Moreover, the figures for the IC50 with Leishmania donovani [3] and in the data set on Leishmania donovani [4] were 446 µM and 744 µM, respectively.

On to `O=C(c1ccco1)c1cc2c(ccc3ccccc32)oc1=S`, for which the Ratio IC50 in the data set on Leishmania donovani [1] turned out to be 75. Also, the cell killing at 48 h in data set [2] was determined as 27.8%; in data set [5], 12%. Besides, the IC50 with Leishmania donovani [3] was 37 µM; in the data set with Leishmania donovani [4] it was 2770 µM.

In the case of `O=C(c1cccs1)c1cc2cc(Br)ccc2oc1=S`, in the data set with Leishmania donovani [1], the Ratio IC50 turned out to be 55.8. Also, the cell killing at 48 h in data set [2] was 6.66%; in data set [5], 10.9%. The IC50 was determined as 83 µM in the data set on Leishmania donovani [3] and 4630 µM with Leishmania donovani [4].

For the molecule `COc1ccc(C(=O)c2cc3cc(Br)ccc3oc2=S)cc1`, the Ratio IC50 with Leishmania donovani [1] was found to be 2.3. Further, the figures for the cell killing at 48 h in data set [2] and in data set [5] were 40.5% and 32.9%, respectively. The figures for the IC50 with Leishmania donovani [3], in the data set on Leishmania donovani [6] and in the data set with Leishmania donovani [4] were 198 µM, 17 µM and 450 µM, respectively.

Regarding `O=C(c1cccs1)c1cc2c(ccc3ccccc32)oc1=S`, the Ratio IC50 with Leishmania donovani [1] stood at 2.7. Also, the cell killing at 48 h was 24.6% in data set [2] and 28.8% in data set [5]. Besides, the IC50 in the data set with Leishmania donovani [3] came to 36 µM; with Leishmania donovani [6], 22 µM; in the data set with Leishmania donovani [4] it was 97 µM.

As to `COc1ccc(C(=O)c2cc3c(ccc4ccccc43)oc2=S)cc1`, the Ratio IC50 in the data set with Leishmania donovani [1] turned out to be 1.5. Further, the values for the cell killing at 48 h in data set [2] and in data set [5] were 27% and 15.1%, respectively. The IC50 with Leishmania donovani [3] was 221 µM; in the data set on Leishmania donovani [4], 335 µM.

With `COc1ccc(C(=O)c2cc3cccc(OC)c3oc2=S)cc1`, in the data set with Leishmania donovani [1], the Ratio IC50 turned out to be 2.8. In addition, the results for the cell killing at 48 h in data set [2] and in data set [5] were 14.8% and 16.6%, respectively. The results for the IC50 in the data set with Leishmania donovani [3] and with Leishmania donovani [4] were 502 µM and 1400 µM, respectively.

For the molecule `COc1cccc2cc(C(=O)c3ccc(Cl)cc3)c(=S)oc12`, the Ratio IC50 in the data set on Leishmania donovani [1] came out at 0.66. The cell killing at 48 h was 20.2% in data set [2] and 0.46% in data set [5]. Also, the results for the IC50 in the data set with Leishmania donovani [3], in the data set with Leishmania donovani [6] and with Leishmania donovani [4] were 73 µM, 24 µM and 48 µM, respectively.

Turning to `COc1cccc2cc(C(=O)c3cccs3)c(=S)oc12`, the Ratio IC50 in the data set on Leishmania donovani [1] stood at 4.6. The cell killing at 48 h came out at 19.5% in data set [2] and 11.1% in data set [5]. The IC50 in the data set on Leishmania donovani [3] is 927 µM; in the data set on Leishmania donovani [4], 4300 µM.

For the molecule `C[C@@H]1[C@H](O)[C@@H](C)/C=C/C=C/C=C/C=C/C=C/C=C/C=C/[C@H](O[C@@H]2O[C@H](C)[C@@H](O)[C@H](N)[C@@H]2O)C[C@@H]2O[C@](O)(C[C@@H](O)C[C@@H](O)[C@H](O)CC[C@@H](O)C[C@@H](O)CC(=O)O[C@H]1C)C[C@H](O)[C@H]2C(=O)O` [AMPHOTERICIN B], the figures for the cell killing at 48 h in data set [2] and in data set [5] were 24.4% and 16%, respectively. Also, the figures for the IC50 in the data set with Leishmania donovani [3] and in the data set on Leishmania donovani [4] were 0.061 µM and 0.465 µM, respectively.

As for `O=C(c1ccco1)c1cc2cc(Br)ccc2oc1=S`, in the data set with Leishmania donovani [1], the Ratio IC50 stood at 2. Besides, the cell killing at 48 h in data set [2] turned out to be 17.6%; in data set [5] it was 10.7%. Moreover, the IC50 in the data set with Leishmania donovani [3] worked out at 524 µM; in the data set with Leishmania donovani [4], 1030 µM.

`COc1cccc2cc(C(=O)c3ccco3)c(=S)oc12`: in the data set on Leishmania donovani [1], the Ratio IC50 is 18.8. The values for the cell killing at 48 h in data set [2] and in data set [5] were 26% and 12.3%, respectively. The IC50 was 65 µM in the data set with Leishmania donovani [3], 26 µM with Leishmania donovani [6] and 1220 µM with Leishmania donovani [4].
